For series [1], the system named is Neisseria gonorrhoeae. Put plainly: Antibacterial activity against Neisseria gonorrhoeae NCTC 8375/ATCC 19424 by two-fold serial dilution method. The class given is functional.
Series [2] concerns Mycobacterium tuberculosis. Put plainly: Antitubercular activity against Mycobacterium tuberculosis H37Rv after […] by micro broth dilution method. The class given is functional. Background: In broth dilution the organism is exposed to a series of concentrations in liquid medium.
A further series relates to Proteus vulgaris. Put plainly: Antibacterial activity against Proteus vulgaris RCPM 160125 (222) by two-fold serial dilution method. The class given is functional.
Another series has as its system Citrobacter braakii. Put plainly: Antibacterial activity against Citrobacter braakii ATCC 101/57 by two-fold serial dilution method. The class given is functional.
Series [3] can be described thus: Cytotoxicity against mouse MacCoy B cells after 24 hrs by p-Nitro-Blue tetrazolium chloride dye based colorometric method. The class given is cell-based.
In another series the test system is Pseudomonas aeruginosa. Put plainly: Antibacterial activity against Pseudomonas aeruginosa ATCC 9027 by two-fold serial dilution method. The class given is functional.
The subject of another series is Shigella flexneri. Description: Antibacterial activity against Shigella flexneri RCPM 1a8516 by two-fold serial dilution method. The class given is functional.
Series [4] has as its system Staphylococcus aureus. Put plainly: Potency index, ratio of spectinomycin MIC to compound MIC for Staphylococcus aureus ATCC 25923. The class given is functional.
Another series relates to Escherichia coli. Put plainly: Antibacterial activity against Escherichia coli ATCC 8739 by two-fold serial dilution method. The class given is functional.
The subject of series [5] is Neisseria gonorrhoeae. Put plainly: Antibacterial activity against gonorrhea patient derived azithromycin resistant-Neisseria gonorrhoeae by two-fold serial dilution method. The class given is functional.
Series [6] relates to Staphylococcus aureus. Put plainly: Antibacterial activity against Staphylococcus aureus ATCC 25923 by two-fold serial dilution method. The class given is functional.
Series [7] has as its system Neisseria gonorrhoeae. Put plainly: Antibacterial activity against Neisseria gonorrhoeae NCTC 12700/ATCC 49226 by two-fold serial dilution method. The class given is functional.
Series [8] relates to Neisseria gonorrhoeae. Description: Potency index, ratio of spectinomycin MIC to compound MIC for Neisseria gonorrhoeae NCTC 8375/ATCC 19424. The class given is functional.
A further series concerns Serratia marcescens. Description: Antibacterial activity against Serratia marcescens ATCC 13880 by two-fold serial dilution method. The class given is functional.
A further series concerns Klebsiella pneumoniae. Description: Antibacterial activity against Klebsiella pneumoniae ATCC 13883 by two-fold serial dilution method. The class given is functional.
Series [9] deals with Neisseria gonorrhoeae. Description: Potency index, ratio of spectinomycin MIC to compound MIC for Neisseria gonorrhoeae NCTC 12700/ATCC 49226. The class given is functional.
A short description of series [10]: Potency index, ratio of compound LD50 to isoniazid LD50 for mouse. The class given is ADME. The note with it: in vivo.
Series [11] in a line: Toxicity in mouse administered as single oral dose measured for 14 days. The note with it: in vivo.
The nature of series [12]: Toxicity in orally dosed mouse. The class given is organism-based. To be noted: in vivo, po.

Structures are written as SMILES. Values after ≈ are worked out from the molar mass of the structure shown.

The term MIC denotes the lowest concentration that inhibits growth of the organism. Take `O=[N+]([O-])c1ccc(-c2ncncc2-c2cc(C(F)(F)F)cc(C(F)(F)F)c2)o1`: the results for the minimal inhibitory concentration (MIC) (with Neisseria gonorrhoeae [1]; in [2]) were over 1000 mg/L and 12.5 mg/L (≈ 31 µM), respectively.

On to `O=[N+]([O-])c1ccc(-c2ncncc2-c2ccc(C(F)(F)F)cc2)o1`, for which the values for the MIC (in the series with Neisseria gonorrhoeae [1]; in [2]) were 500 mg/L (≈ 1490 µM) and 12.5 mg/L (≈ 37.3 µM), respectively.

Consider `O=[N+]([O-])c1ccc(-c2ncncc2-c2cccc(C(F)(F)F)c2)o1`, for which the MIC against Neisseria gonorrhoeae [1] came to 125 mg/L (≈ 373 µM); in series [2], 12.5 mg/L (≈ 37.3 µM).

`O=[N+]([O-])c1ccc(-c2ncncc2-c2cc(F)cc(F)c2)o1`: the MIC against Neisseria gonorrhoeae [1] is over 1000 mg/L; in series [2] it was 12.5 mg/L (≈ 41.2 µM).

One may read the IC50 as the concentration needed to halve the response being measured. In the case of `O=[N+]([O-])c1ccc(-c2ncncc2-c2ccc(F)cc2F)o1`, the MIC against Proteus vulgaris was over 250 mg/L; with Citrobacter braakii, over 500 mg/L; in the series on Pseudomonas aeruginosa, over 500 mg/L; against Shigella flexneri, over 250 mg/L; in the series on Escherichia coli, over 500 mg/L; in the series on Neisseria gonorrhoeae [1], 31.2 mg/L (≈ 103 µM). The MIC is 31.2 mg/L (≈ 103 µM) in the series on Neisseria gonorrhoeae [5]; 31.2 mg/L (≈ 103 µM) in the series on Staphylococcus aureus [6]; 3.9 mg/L (≈ 12.9 µM) against Neisseria gonorrhoeae [7]; over 500 mg/L against Serratia marcescens; over 500 mg/L in the series with Klebsiella pneumoniae; 12.5 mg/L (≈ 41.2 µM) in series [2]. The IC50 in series [3] was 66.8 µM. Also, the Ratio in the series on Staphylococcus aureus [4] is reported as 4; in the series on Neisseria gonorrhoeae [8] it was “<=16”; in the series on Neisseria gonorrhoeae [9], “<=16”.

In general, LD50 refers to the dose at which mortality reaches 50%. A lower LD50 goes with a more toxic substance. As to `O=[N+]([O-])c1ccc(-c2ncncc2Br)o1`, the MIC is over 250 mg/L against Proteus vulgaris; over 250 mg/L in the series with Citrobacter braakii; over 250 mg/L with Pseudomonas aeruginosa; 7.8 mg/L (≈ 28.9 µM) against Shigella flexneri; over 250 mg/L with Escherichia coli; 7.8 mg/L (≈ 28.9 µM) against Neisseria gonorrhoeae [1]. In addition, the minimum inhibitory concentration (MIC) against Neisseria gonorrhoeae [5] is 3.9 mg/L (≈ 14.4 µM); in the series with Staphylococcus aureus [6], 7.8 mg/L (≈ 28.9 µM); in the series with Neisseria gonorrhoeae [7], 0.97 mg/L (≈ 3.59 µM); with Serratia marcescens, over 250 mg/L; in the series with Klebsiella pneumoniae, over 250 mg/L; in [2], 1.5 mg/L (≈ 5.55 µM). In addition, it took 167 µM to reach half-maximal inhibition in series [3] (IC50). For the same compound, the selectivity ratio in series [10] is 2. The Ratio with Staphylococcus aureus [4] is 4; with Neisseria gonorrhoeae [8], “<=16”; in the series with Neisseria gonorrhoeae [9] it was “<=16”. Besides, the LD50 at 336 h in series [11] came to 300 mg/kg.

Regarding `CN[C@@H]1[C@H](O)[C@H](NC)[C@H]2O[C@@]3(O)C(=O)C[C@@H](C)O[C@H]3O[C@@H]2[C@H]1O` [SPECTINOMYCIN], the MIC against Proteus vulgaris is 125 mg/L (≈ 376 µM); in the series on Citrobacter braakii, 31.2 mg/L (≈ 94 µM); against Pseudomonas aeruginosa, 250 mg/L (≈ 752 µM); against Shigella flexneri it was 7.8 mg/L (≈ 23.5 µM); against Escherichia coli, 15.6 mg/L (≈ 46.9 µM); in the series on Neisseria gonorrhoeae [1], 15.6 mg/L (≈ 46.9 µM). The MIC was determined as 15.6 mg/L (≈ 46.9 µM) against Neisseria gonorrhoeae [5]; 31.2 mg/L (≈ 94 µM) in the series with Staphylococcus aureus [6]; 15.6 mg/L (≈ 46.9 µM) in the series on Neisseria gonorrhoeae [7]; 15.6 mg/L (≈ 46.9 µM) against Serratia marcescens; 15.6 mg/L (≈ 46.9 µM) in the series on Klebsiella pneumoniae. In series [3], the IC50 was over 752 µM. In addition, in [12], the LD50 is over 10000 mg/kg.

Take `O=[N+]([O-])c1ccc(-c2ncncc2-c2ccc(C(F)(F)F)cc2C(F)(F)F)o1`: the MIC in the series with Proteus vulgaris was over 250 mg/L; against Citrobacter braakii, over 500 mg/L; with Pseudomonas aeruginosa, over 500 mg/L; in the series with Shigella flexneri, over 250 mg/L; against Escherichia coli it was over 500 mg/L; against Neisseria gonorrhoeae [1], 1000 mg/L (≈ 2480 µM). Moreover, the minimum inhibitory concentration (MIC) against Neisseria gonorrhoeae [5] was 1000 mg/L (≈ 2480 µM); against Staphylococcus aureus [6] it was 15.6 mg/L (≈ 38.7 µM); with Neisseria gonorrhoeae [7], 3.9 mg/L (≈ 9.67 µM); with Serratia marcescens, over 500 mg/L; with Klebsiella pneumoniae, over 500 mg/L; in [2] it was 12.5 mg/L (≈ 31 µM). The IC50 in series [3] turned out to be 45.5 µM. Besides, the Ratio in the series on Staphylococcus aureus [4] is 4; with Neisseria gonorrhoeae [8], “<=16”; with Neisseria gonorrhoeae [9], “<=16”.

As for `O=[N+]([O-])c1ccc(-c2ncncc2-c2cccc(F)c2)o1`, the MIC is over 250 mg/L with Proteus vulgaris; over 250 mg/L in the series on Citrobacter braakii; over 250 mg/L in the series with Pseudomonas aeruginosa; over 250 mg/L against Shigella flexneri; over 250 mg/L against Escherichia coli; 3.9 mg/L (≈ 13.7 µM) against Neisseria gonorrhoeae [1]. Further, the MIC is 15.6 mg/L (≈ 54.7 µM) against Neisseria gonorrhoeae [5]; over 250 mg/L with Staphylococcus aureus [6]; 0.97 mg/L (≈ 3.4 µM) against Neisseria gonorrhoeae [7]; over 250 mg/L in the series with Serratia marcescens; over 250 mg/L in the series on Klebsiella pneumoniae; 12.5 mg/L (≈ 43.8 µM) in series [2]. This compound also showed an IC50 in [3] of 100 µM. For the same compound, the Ratio in the series on Staphylococcus aureus [4] is reported as 4; with Neisseria gonorrhoeae [8], “<=16”; with Neisseria gonorrhoeae [9], “<=16”.

Regarding `NC(=O)c1cnccn1` [PYRAZINAMIDE], the MIC in series [2] came to 12.5 mg/L (≈ 102 µM).

The compound `O=[N+]([O-])c1ccc(-c2ncncc2-c2ccc(F)cc2)o1` returned a half-maximal inhibitory concentration (IC50) in series [3] of 69.8 µM. For the same compound, the Ratio in the series with Staphylococcus aureus [4] is recorded as 4; in the series with Neisseria gonorrhoeae [8] it was “<=16”; in the series on Neisseria gonorrhoeae [9] it was “<=16”. The MIC was determined as 15.6 mg/L (≈ 54.7 µM) in the series with Neisseria gonorrhoeae [1]; 31.2 mg/L (≈ 110 µM) against Neisseria gonorrhoeae [5]; 62.5 mg/L (≈ 219 µM) against Staphylococcus aureus [6]; 31.2 mg/L (≈ 110 µM) against Neisseria gonorrhoeae [7]; 12.5 mg/L (≈ 43.8 µM) in series [2].

`O=[N+]([O-])c1ccc(-c2ncncc2-c2ccccc2F)o1`: the MIC in the series on Proteus vulgaris is over 250 mg/L; in the series with Citrobacter braakii, over 250 mg/L; in the series with Pseudomonas aeruginosa, over 250 mg/L; against Shigella flexneri, over 250 mg/L; with Escherichia coli it was over 250 mg/L; against Neisseria gonorrhoeae [1] it was 7.8 mg/L (≈ 27.3 µM). Further, the MIC with Neisseria gonorrhoeae [5] was 7.8 mg/L (≈ 27.3 µM); with Staphylococcus aureus [6], 15.6 mg/L (≈ 54.7 µM); in the series on Neisseria gonorrhoeae [7] it was 1.95 mg/L (≈ 6.84 µM); in the series with Serratia marcescens it was over 250 mg/L; against Klebsiella pneumoniae it was over 250 mg/L; in series [2] it was 12.5 mg/L (≈ 43.8 µM). Half-maximal inhibition in [3] (IC50) required 67.5 µM. In addition, the results for the Ratio in the series on Staphylococcus aureus [4], in the series on Neisseria gonorrhoeae [8] and in the series on Neisseria gonorrhoeae [9] were 4, “<=16” and “<=16”, respectively.

The compound `NNC(=O)c1ccncc1` [ISONIAZID] gave an MIC in [2] of 0.1 mg/L (≈ 0.729 µM).

Turning to `O=[N+]([O-])c1ccc(-c2ncncc2-c2ccccc2)o1`, the MIC was over 250 mg/L against Proteus vulgaris; over 250 mg/L against Citrobacter braakii; over 250 mg/L with Pseudomonas aeruginosa; over 250 mg/L against Shigella flexneri; over 250 mg/L in the series with Escherichia coli; 3.9 mg/L (≈ 14.6 µM) in the series on Neisseria gonorrhoeae [1]. The MIC in the series on Neisseria gonorrhoeae [5] is 7.8 mg/L (≈ 29.2 µM); against Staphylococcus aureus [6], 15.6 mg/L (≈ 58.4 µM); in the series with Neisseria gonorrhoeae [7], 1.95 mg/L (≈ 7.3 µM); in the series on Serratia marcescens, over 250 mg/L; against Klebsiella pneumoniae it was over 250 mg/L; in series [2], 3.1 mg/L (≈ 11.6 µM). The compound further gave an IC50 in series [3] of 52.5 µM. The selectivity ratio in [10] was determined as 3. The results for the Ratio in the series with Staphylococcus aureus [4], in the series with Neisseria gonorrhoeae [8] and with Neisseria gonorrhoeae [9] were 4, “<=16” and “<=16”, respectively. In addition, the LD50 at 336 h in [11] came out at 450 mg/kg.

Regarding `O=[N+]([O-])c1ccc(-c2ncncc2-c2ccccc2C(F)(F)F)o1`, the MIC is over 250 mg/L with Proteus vulgaris; over 250 mg/L against Citrobacter braakii; over 250 mg/L in the series with Pseudomonas aeruginosa; 62.5 mg/L (≈ 186 µM) in the series with Shigella flexneri; over 250 mg/L against Escherichia coli; 15.6 mg/L (≈ 46.5 µM) against Neisseria gonorrhoeae [1]. The MIC is 15.6 mg/L (≈ 46.5 µM) with Neisseria gonorrhoeae [5]; 15.6 mg/L (≈ 46.5 µM) against Staphylococcus aureus [6]; 3.9 mg/L (≈ 11.6 µM) with Neisseria gonorrhoeae [7]; over 250 mg/L against Serratia marcescens; over 250 mg/L with Klebsiella pneumoniae; 12.5 mg/L (≈ 37.3 µM) in series [2]. In series [3], this compound returned an IC50 of 74.4 µM. In addition, the Ratio was 4 with Staphylococcus aureus [4], “<=16” with Neisseria gonorrhoeae [8] and “<=16” in the series on Neisseria gonorrhoeae [9].

The record behind these values is ChEMBL document CHEMBL4033695, “Synthesis and biological evaluation of novel 5-aryl-4-(5-nitrofuran-2-yl)-pyrimidines as potential anti-bacterial agents” (Bioorg Med Chem Lett, 2017).
